Results from ChEMBL document CHEMBL1201862, “PubChem BioAssay data set” (2004).
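A five-concentration, 48-hour dose response in 96-well plates underlies each endpoint, interpolated linearly between surrounding concentrations. Abbreviation: GI50, concentration required for 50% inhibition of growth.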 Activity calls are given as the source filed them. Cut-off read from the data, not from the text of the source: active = GI50 up to about 1.1 µM and inactive = higher.

How the values were obtained:
Experiment in all cases: inhibition of tumour cell growth, NCI panel, 48 h
786-0 = system: 786-0
CAKI-1 = system: CAKI-1
COLO 205 = system: COLO 205
DU-145 = system: DU-145
IGROV-1 = system: IGROV-1
MCF7 = system: MCF7
MDA-MB-231 = system: MDA-MB-231
MDA-MB-435 = system: MDA-MB-435
Malme-3M = system: Malme-3M
OVCAR-5 = system: OVCAR-5
PC-3 = system: PC-3
RPMI-8226 = system: RPMI-8226
RXF 393 = system: RXF 393
SK-MEL-28 = system: SK-MEL-28
SK-MEL-2 = system: SK-MEL-2
SK-OV-3 = system: SK-OV-3
SN12C = system: SN12C
TK-10 = system: TK-10
SNB-75 = system: SNB-75

Measured: GI50

O=C(/C=C/c1ccc(O)c(O)c1O)OCCc1ccccc1
inactive: 786-0 16 µM | CAKI-1 > 100 µM | COLO 205 27.8 µM | DU-145 > 100 µM | IGROV-1 32.9 µM | MCF7 14.5 µM | MDA-MB-231 24.9 µM | MDA-MB-435 17.5 µM | Malme-3M > 100 µM | OVCAR-5 41.9 µM | PC-3 48.9 µM | RPMI-8226 21.2 µM | RXF 393 36.1 µM | SK-MEL-28 > 100 µM | SK-MEL-2 61.9 µM | SK-OV-3 90.8 µM | SN12C 18.4 µM | TK-10 83.2 µM

CCOC(=O)N(C)CCC1CC=CC(=O)C1c1cccc(OC)c1OC (stereo not drawn)
inactive: 786-0 17 µM | CAKI-1 20.9 µM | COLO 205 4 µM | DU-145 12.1 µM | IGROV-1 36.1 µM | MCF7 16.9 µM | MDA-MB-231 26.1 µM | MDA-MB-435 10.6 µM | Malme-3M 22.9 µM | OVCAR-5 17.3 µM | PC-3 12.2 µM | RPMI-8226 14.2 µM | RXF 393 10.5 µM | SK-MEL-2 13.7 µM | SK-OV-3 37.4 µM | SN12C 17.3 µM | TK-10 22.5 µM

COc1cc(OC2OC(CO)C(O)C(O)C2O)c2c(c1)O[C@@H]1[C@H](O)Oc3cc(OC)c(OC)cc3[C@]1(O)C2=O (stereo partly drawn)
inactive: 786-0 > 25 µM | CAKI-1 > 25 µM | COLO 205 > 25 µM | DU-145 > 25 µM | IGROV-1 > 25 µM | MCF7 > 25 µM | MDA-MB-231 > 25 µM | MDA-MB-435 > 25 µM | OVCAR-5 > 25 µM | PC-3 > 25 µM | RPMI-8226 > 25 µM | SK-MEL-28 > 25 µM | SK-MEL-2 > 25 µM | SK-OV-3 > 25 µM | SN12C > 25 µM | SNB-75 > 25 µM | TK-10 > 25 µM

COc1cccc(-c2ccc3c4c2O[C@H]2C(=O)CC[C@@]5(O)[C@@H](C3)N(CC3CC3)CC[C@]425)c1
inactive: 786-0 16.1 µM | CAKI-1 16.6 µM | COLO 205 13 µM | DU-145 24.4 µM | IGROV-1 21.8 µM | MCF7 16 µM | MDA-MB-231 15.8 µM | MDA-MB-435 12.9 µM | Malme-3M 20.9 µM | OVCAR-5 17.9 µM | PC-3 13.4 µM | RPMI-8226 12.6 µM | RXF 393 8.53 µM | SK-MEL-28 27.4 µM | SK-MEL-2 19 µM | SK-OV-3 18.7 µM | SN12C 18.5 µM | TK-10 17.3 µM

c1nncn1C12C3C4C5C3C1C5C42 (stereo not drawn)
inactive: 786-0 > 100 µM | COLO 205 > 100 µM | DU-145 > 100 µM | IGROV-1 > 100 µM | MCF7 > 100 µM | MDA-MB-231 > 100 µM | MDA-MB-435 > 100 µM | OVCAR-5 > 100 µM | PC-3 > 100 µM | RPMI-8226 > 100 µM | SK-MEL-28 > 100 µM | SK-MEL-2 > 100 µM | SK-OV-3 > 100 µM | SN12C > 100 µM | SNB-75 > 100 µM | TK-10 > 100 µM

NNC(=O)c1ccccc1Nc1nc(-c2cccs2)nc2ccc(Br)cc12
inactive: 786-0 49.5 µM | CAKI-1 74.3 µM | COLO 205 > 100 µM | DU-145 > 100 µM | IGROV-1 > 100 µM | MCF7 49.5 µM | MDA-MB-231 > 100 µM | MDA-MB-435 77.4 µM | Malme-3M > 100 µM | OVCAR-5 > 100 µM | PC-3 44.4 µM | RPMI-8226 > 100 µM | SK-MEL-28 45.5 µM | SK-MEL-2 > 100 µM | SK-OV-3 > 100 µM | SN12C 37.2 µM | SNB-75 45.4 µM | TK-10 > 100 µM

COc1c(OC/C=C(\C)CCC=C(C)C)ccc2ccc(=O)oc12 [COLLININ]
inactive: 786-0 > 100 µM | CAKI-1 > 100 µM | COLO 205 > 100 µM | DU-145 > 100 µM | IGROV-1 > 100 µM | MCF7 > 100 µM | MDA-MB-231 > 100 µM | MDA-MB-435 > 100 µM | OVCAR-5 > 100 µM | PC-3 24.2 µM | RPMI-8226 > 100 µM | SK-MEL-28 > 100 µM | SK-MEL-2 > 100 µM | SK-OV-3 > 100 µM | SN12C > 100 µM | SNB-75 > 100 µM | TK-10 > 100 µM

N/N=C1/CCCc2nonc21
inactive: 786-0 > 100 µM | CAKI-1 > 100 µM | COLO 205 > 100 µM | DU-145 > 100 µM | IGROV-1 > 100 µM | MCF7 > 100 µM | MDA-MB-231 > 100 µM | MDA-MB-435 > 100 µM | Malme-3M > 100 µM | OVCAR-5 > 100 µM | PC-3 > 100 µM | RPMI-8226 > 100 µM | RXF 393 > 100 µM | SK-MEL-28 > 100 µM | SK-MEL-2 > 100 µM | SK-OV-3 > 100 µM | SN12C > 100 µM | TK-10 > 100 µM

CCCCCCCCCCCCC(=O)NCC(=O)NC(Cc1ccccc1)C(=O)Oc1ccc([N+](=O)[O-])cc1 (stereo not drawn)
inactive: 786-0 84.3 µM | CAKI-1 > 100 µM | COLO 205 16.7 µM | DU-145 > 100 µM | IGROV-1 87.9 µM | MCF7 57.5 µM | MDA-MB-231 48.4 µM | MDA-MB-435 65.8 µM | OVCAR-5 > 100 µM | PC-3 > 100 µM | RXF 393 91.4 µM | SK-MEL-2 > 100 µM | SN12C 70.1 µM | SNB-75 18.5 µM | TK-10 > 100 µM

COc1cc(OCc2ccccc2)c2c(CCC(=O)O)cc(=O)oc2c1.COc1cc(OCc2ccccc2)cc2oc(=O)cc(CCC(=O)O)c12
inactive: 786-0 92.5 µM | CAKI-1 28.6 µM | COLO 205 67.3 µM | DU-145 64.6 µM | IGROV-1 51.2 µM | MCF7 2.59 µM | MDA-MB-231 29.1 µM | MDA-MB-435 61.7 µM | Malme-3M > 100 µM | OVCAR-5 > 100 µM | PC-3 56.8 µM | RPMI-8226 57.3 µM | SK-MEL-28 42.3 µM | SK-MEL-2 30.1 µM | SK-OV-3 82.4 µM | SNB-75 60.1 µM | TK-10 31.6 µM

Cc1cn(C2CC(N(O)C(N)=O)C(CO)O2)c(=O)[nH]c1=O (stereo not drawn)
inactive: 786-0 > 100 µM | CAKI-1 > 100 µM | COLO 205 > 100 µM | DU-145 > 100 µM | MCF7 > 100 µM | MDA-MB-231 > 100 µM | MDA-MB-435 > 100 µM | Malme-3M > 100 µM | OVCAR-5 > 100 µM | PC-3 > 100 µM | RPMI-8226 > 100 µM | RXF 393 > 100 µM | SK-MEL-28 > 100 µM | SK-MEL-2 > 100 µM | SK-OV-3 > 100 µM | SN12C > 100 µM | TK-10 > 100 µM
